Data on 22 compounds can be found in patent US5214037A, “Thioalkylthio cephalosporin derivatives” (Shionogi & Co., Ltd., priority 1990, dated 1993).

SMILES strings stand for the structures. Converted amounts (≈) assume the structure as drawn. Counter-ions that a name gives are not always drawn.

The nature of series [1]: Blood level at 15 minutes after oral administration to mice. The class given is in vivo, mouse. The following applies: 40 mg/kg oral; for concentration at 0.25 h: mouse, blood. The method, then: The in vivo absorption rate of the compound I after oral administration was determined by administering a compound of the invention to mouse and measuring the blood level.
Blood level at 15 minutes after oral administration : A test compound (40 mg/kg) in a 5% suspension of arabic gum was administered to a mouse (weighing ca. 25 g) through an enteral tube. After 15 minutes, the blood in the heart cavity was taken and the concentration of the test compound was measured by the band culture method using Escherichia coli 7437.

For another series, the system named is Morgania morganii SR9. In words: Antibacterial activity in vitro, minimal inhibitory concentration (two-fold agar dilution). The format is cell-based. The method, then: (§1) Antibacterial activity in vitro : A solution of the test compound in 0.01N-aqueous sodium hydrogen carbonate was applied to an agar plate by two-fold dilution method and the minimal inhibitory concentrations against Gram-negative and Gram-positive bacteria were measured according to the standard method of the Japan Society of Chemotherapy.
On the technique in general: In agar dilution the substance is mixed into plates at graded concentrations.

Series [2] concerns Enterobacter cloacae SR233. The description is as above. The class given is cell-based. The procedure: as §1
A further series relates to Escherichia coli 7437. Described as above. The class given is cell-based. Particulars: Escherichia coli 7437, agar dilution. The procedure:
as §1

The test system of the next series is Escherichia coli SR377. Described as above. The format is cell-based. The procedure: as §1
The subject of another series is Escherichia coli EC-14. The description is as above. The class given is cell-based. Particulars: EC14; Escherichia coli EC-14, agar dilution. The method, then:
as §1

Another series has as its system Proteus vulgaris CN-329. Described as above. The class given is cell-based. Particulars: CN329; Proteus vulgaris CN-329, agar dilution. The method, then: as §1
A further series deals with Proteus mirabilis PR4. The description is as above. The format is cell-based. The method, then: as §1
Series [3] has as its system Serratia marcescens SR1005. The description is as above. The class given is cell-based. The method, then: as §1
Series [4] concerns Staphylococcus aureus Smith. Described as above. The class given is cell-based. The method, then: as §1
Series [5] concerns Staphylococcus aureus 209P JC-1. Described as above. The format is cell-based. Particulars: Staphylococcus aureus 209P JC-1, agar dilution. The procedure:
as §1

Series [6] deals with Pseudomonas aeruginosa A25619. Described as above. The format is cell-based. The procedure: as §1
Series [7] deals with Serratia marcescens A13880. Described as above. The format is cell-based. The method, then: as §1

Regarding `Nc1nc(/C(=N/O)C(=O)N[C@@H]2C(=O)N3C(C(=O)O)=C(SCSCc4c[nH]nn4)CS[C@H]23)cs1` [Example 6-1, 7β-[(Z)-2-(2-aminothiazol-4-yl) -2-hydroxyiminoacetamido]-3-(1,2,3-triazol-4-ylmethylthiomethylthio) -3-cephem-4-carboxylic acid], the concentration at 0.25 h in series [1] turned out to be 12100 ng/mL. Besides, the values for the MIC (against Morgania morganii SR9; in series [2]) were 0.1 µg/mL (≈ 0.189 µM) and 0.8 µg/mL (≈ 1.51 µM), respectively.
`Cc1nnc(SCSC2=C(C(=O)O)N3C(=O)[C@@H](NC(=O)/C(=N\O)c4csc(N)n4)[C@H]3SC2)s1` [Example 7-26, 7μ-[(Z)-2-(2-aminothiazol-4-yl)-2-hydroxyiminoacetamido]-3-(2-methyl-1,3,4-thiadiazol-5-ylthiomethylthio)-3-cephem-4-carboxylic acid]: the MIC (commonly the smallest concentration in the dilution series that meets the test's criterion for growth inhibition) against Morgania morganii SR9 turned out to be 0.05 µg/mL (≈ 0.0916 µM); in [2] it was 0.8 µg/mL (≈ 1.47 µM); in the series with Escherichia coli 7437, 0.02 µg/mL (≈ 0.0367 µM); in the series on Escherichia coli SR377 it was 0.8 µg/mL (≈ 1.47 µM).
`Cn1ncc(SCSC2=C(C(=O)O)N3C(=O)[C@@H](NC(=O)/C(=N\O)c4csc(N)n4)[C@H]3SC2)n1` [Example 7-18, 7μ-[(Z)-2-(2-aminothiazol-4-yl)-2-hydroxyiminoacetamido]-3-(2-methyl-1,2,3-triazol-4-yl)thiomethylthio-3 cephem-4-carboxylic acid] gave an MIC against Escherichia coli 7437 of 0.02 µg/mL (≈ 0.0378 µM).
As for `Nc1nc(/C(=N/O)C(=O)N[C@@H]2C(=O)N3C(C(=O)O)=C(SCSc4ccccn4)CS[C@H]23)cs1` [Example 7-30], the concentration at 0.25 h in series [1] was determined as 18700 ng/mL. Moreover, the MIC against Escherichia coli 7437 was found to be 0.01 µg/mL (≈ 0.0191 µM).
As to `Nc1nc(/C(=N/O)C(=O)N[C@@H]2C(=O)N3C(C(=O)O)=C(SCSc4cnns4)CS[C@H]23)cs1` [Example 7-24, 7μ-[(Z)-2-(2-aminothiazol-4-yl)-2-hydroxyiminoacetyl]amino-3-(1,2,3-thiadiazol-5-yl) thiomethylthio-3-cephem-4-carboxylic acid], the MIC in series [2] was 0.4 µg/mL (≈ 0.752 µM); in the series on Escherichia coli 7437, 0.01 µg/mL (≈ 0.0188 µM); against Escherichia coli SR377, 0.4 µg/mL (≈ 0.752 µM).
In the series on Escherichia coli EC-14, `Nc1nc(C(=O)C(=O)N[C@@H]2C(=O)N3C(C(=O)O)=C(SCSc4c[nH]nn4)CS[C@H]23)cs1` [Example 7-11, 7β-[2-(2-aminothiazol-4-yl)glyoxylylamido]-3-(1,2,3-triazol-4-ylthiomethylthio) -3-cephem-4-carboxylic acid] came in with an MIC of 0.4 µg/mL (≈ 0.801 µM).
`Nc1nc(/C(=N/OCC(=O)O)C(=O)N[C@@H]2C(=O)N3C(C(=O)O)=C(SCSc4c[nH]nn4)CS[C@H]23)cs1` [Example 7-13, 7μ-[(Z)-2-(2-aminothiazol-4-yl)-2-(sodiooxycarbonylmethoxyimino)acetamido]-3-(1,2,3-triazol-4-ylthiomethylthio) -3-cephem-4-carboxylic acid sodium salt]: the MIC in the series with Proteus vulgaris CN-329 and with Proteus mirabilis PR4 was 0.006 µg/mL each time.
Regarding `C=C(O/N=C(\C(=O)N[C@@H]1C(=O)N2C(C(=O)O)=C(SCSc3c[nH]nn3)CS[C@H]12)c1csc(N)n1)C(=O)O` [Example 7-15, 7μ-[(Z)-2-(2-aminothiazol-4-yl)-2-(1-carboxyvinyloxyimino)acetamido]-3-(1,2,3-triazol-4-ylthiomethylthio)-3-cephem-4-carboxylic acid], the MIC in series [3] was 0.8 µg/mL (≈ 1.37 µM); with Proteus mirabilis PR4, less than 0.003 µg/mL.
With `C=CCO/N=C(\C(=O)N[C@@H]1C(=O)N2C(C(=O)O)=C(SCSc3c[nH]nn3)CS[C@H]12)c1csc(N)n1` [Example 7-8, 7β-[(Z)-2-(2-aminothiazol-4-yl)-2-(2-propenyloxyimino)acetamido]-3-(1,2,3-triazol-4-ylthiomethylthio) -3-cephem-4-carboxylic acid], the results for the MIC (in series [2]; against Escherichia coli EC-14) were 0.8 µg/mL (≈ 1.44 µM) and 0.4 µg/mL (≈ 0.721 µM), respectively.
`CO/N=C(\C(=O)N[C@@H]1C(=O)N2C(C(=O)O)=C(SCSc3c[nH]nn3)CS[C@H]12)c1csc(N)n1` [Example 7-6, 7β-(Z)-2-(2-aminothiazol-4-yl)-2-methoxyiminoacetyl]amino-3-(1,2,3-triazol-4-yl) thiomethylthio-3-cephem-4-carboxylic acid sodium salt] yielded a concentration at 0.25 h in series [1] of 15000 ng/mL. Also, the MIC worked out at 0.1 µg/mL with Morgania morganii SR9 and 0.02 µg/mL with Proteus vulgaris CN-329.
In the series with Escherichia coli 7437, `Nc1nc(/C(=N/O)C(=O)N[C@@H]2C(=O)N3C(C(=O)O)=C(SCSc4nn[nH]n4)CS[C@H]23)cs1` [Example 7-27, 7μ-[(Z) 2-(2-aminothiazol-4-yl)-2-hydroxyiminoacetyl]amino-3-(tetrazol-5-yl)thiomethylthio-3-cephem-4-carboxylic acid] yielded an MIC of 0.01 µg/mL (≈ 0.0194 µM).
In [1], `O=C(Cc1ccccc1)N[C@@H]1C(=O)N2C(C(=O)O)=C(SCSc3c[nH]nn3)CS[C@H]12` [Example 7-2, 7β-phenylacetylamino-3-(1,2,3-triazol-4-yl) thiomethylthio-3-cephem-4-carboxylic acid] gave a concentration at 0.25 h of 15000 ng/mL. Besides, the MIC in [4] and in series [5] was 0.05 µg/mL (≈ 0.108 µM) in each case.
Regarding `Nc1nc(/C(=N/O)C(=O)N[C@@H]2C(=O)N3C(C(=O)O)=C(SCSc4c[nH]nn4)CS[C@H]23)cs1` [Example 7-5], in series [1], the “blood level on oral administration” value was 29600 ng/mL and the concentration at 0.25 h was 29600 ng/mL. In series [2], the MIC is 0.8 µg/mL (≈ 1.55 µM). For the same compound, the MIC in the series on Escherichia coli 7437 amounted to 0.02 µg/mL (≈ 0.0389 µM).
For the compound `CC(C)(O/N=C(\C(=O)N[C@@H]1C(=O)N2C(C(=O)O)=C(SCSc3c[nH]nn3)CS[C@H]12)c1csc(N)n1)C(=O)O` [Example 7-16, 7μ-[(Z)-2-(2-aminothiazol-4-yl) -2-(1-carboxy-1-methylethoxyimino)acetamido]-3-(1,2,3-triazol-4-ylthiomethylthio)-3-cephem-4-carboxylic acid], the MIC in series [6] is 1.6 µg/mL (≈ 2.66 µM); in series [7] it was 0.8 µg/mL (≈ 1.33 µM); against Proteus mirabilis PR4, 0.01 µg/mL (≈ 0.0166 µM).
With `Nc1nc(/C(=N/O)C(=O)N[C@@H]2C(=O)N3C(C(=O)O)=C(SCSc4nncs4)CS[C@H]23)cs1` [Example 7-25, 7μ-[(Z)-2-(2-aminothiazol-4-yl)-2-hydroxyiminoacetamido]-3-(1,3,4-thiadiazol-2-ylthiomethylthio)-3-cephem-4-carboxylic acid], the values for the MIC (in the series with Morgania morganii SR9; in series [2]; against Escherichia coli SR377) were 0.1 µg/mL (≈ 0.188 µM), 0.4 µg/mL (≈ 0.752 µM) and 0.4 µg/mL (≈ 0.752 µM), respectively.
For `Nc1nc(/C(=N/OC2CCCC2)C(=O)N[C@@H]2C(=O)N3C(C(=O)O)=C(SCSc4c[nH]nn4)CS[C@H]23)cs1` [Example 7-7, 7β-[(Z)-2-(2-aminothiazol-4-yl)-2-cyclopentyloxyiminoacetamido]-3-(1,2,3-triazol-4-ylthiomethylthio)-3-cephem-4-carboxylic acid], the minimum inhibitory concentration (MIC) (in series [6]; against Escherichia coli EC-14) was 0.8 µg/mL (≈ 1.37 µM) in each case.
In the case of `Cn1nnnc1SCSC1=C(C(=O)O)N2C(=O)[C@@H](NC(=O)/C(=N\O)c3csc(N)n3)[C@H]2SC1` [Example 7-28, 7μ-[(Z)-2-(2-aminothiazol-4-yl)-2-hydroxyiminoacetyl]amino-3-(1-methyl-5-tetrazolyl) thiomethylthio-3-cephem-4-carboxylic acid], the MIC was determined as 0.1 µg/mL (≈ 0.189 µM) with Morgania morganii SR9, 0.8 µg/mL (≈ 1.51 µM) in [2], 0.02 µg/mL (≈ 0.0378 µM) against Escherichia coli 7437 and 0.4 µg/mL (≈ 0.755 µM) against Escherichia coli SR377.
Turning to `O=C(CSC(F)F)N[C@@H]1C(=O)N2C(C(=O)O)=C(SCSc3c[nH]nn3)CS[C@H]12` [Example 7-1, 7β-difluoromethylthioacetamido-3-(1,2,3-triazol-4-ylthiomethylthio)-3-cephem-4-carboxylic acid], the concentration at 0.25 h in series [1] worked out at 28000 ng/mL. Moreover, 0.1 µg/mL (≈ 0.213 µM) was the least that counted as inhibitory in series [4] (MIC).
In series [1], `O=C(O)C1=C(SCSc2c[nH]nn2)CS[C@@H]2[C@H](NC(=O)[C@H](O)c3ccccc3)C(=O)N12` [Example 7-3, 7β-D-mandelamido-3-(1,2,3-triazol-4-ylthiomethylthio)-3-cephem-4-carboxylic acid] showed a concentration at 0.25 h of 18500 ng/mL.
`Nc1nc(CC(=O)N[C@@H]2C(=O)N3C(C(=O)O)=C(SCSc4c[nH]nn4)CS[C@H]23)cs1` [Example 7-10, 7β-[2-(2-aminothiazol-4yl)acetamido]-3-(1,2,3-triazol-4-ylthiomethylthio)-3-cephem-4-carboxylic acid]: in [1], the concentration at 0.25 h came out at 17100 ng/mL. The MIC in series [4] was 0.1 µg/mL (≈ 0.206 µM); against Proteus vulgaris CN-329, 0.8 µg/mL (≈ 1.65 µM); against Escherichia coli EC-14, 0.8 µg/mL (≈ 1.65 µM).
As to `Cn1nncc1SCSC1=C(C(=O)O)N2C(=O)[C@@H](NC(=O)/C(=N\O)c3csc(N)n3)[C@H]2SC1` [Example 7-19], the figures for the MIC (in [2]; in the series on Escherichia coli 7437) were 0.4 µg/mL (≈ 0.757 µM) and 0.02 µg/mL (≈ 0.0378 µM), respectively.
As to `C[C@H](O/N=C(\C(=O)N[C@@H]1C(=O)N2C(C(=O)O)=C(SCSc3c[nH]nn3)CS[C@H]12)c1csc(N)n1)C(=O)O` [Example 7-14, 7μ-(Z)-2-(2-aminothiazol-4-yl)-2-[(S)-1-sodiooxycarbonylethoxyimino]acetamido}-3-(1,2,3-triazol-4-ylthiomethylthio)-3-cephem-4-carboxylic acid sodium salt], the MIC against Proteus vulgaris CN-329 was found to be 0.006 µg/mL; in the series on Escherichia coli EC-14 it was 0.2 µg/mL; in the series on Proteus mirabilis PR4 it was 0.01 µg/mL.
